#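 Exposure lasted 48 hours, with cells grown in 96-well plates and compounds tested at five concentrations. GI50 = concentration required for 50% inhibition of growth.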 Calls of active or inactive are those of the source. Rule as the data show it: active = GI50 up to about 1.1 µM and inactive = higher.
# How the values were obtained:
# Assay in all cases: growth of human tumour cells (NCI), 48 h
# HCC 2998 = system: HCC 2998
# A498 = system: A498
# RPMI-8226 = system: RPMI-8226
# 786-0 = system: 786-0
# HL-60 = system: HL-60
# CAKI-1 = system: CAKI-1
# DMS-273 = system: DMS-273
# EKVX = system: EKVX
# OVCAR-5 = system: OVCAR-5
# MOLT-4 = system: MOLT-4
# SK-MEL-28 = system: SK-MEL-28
# SF-539 = system: SF-539
# HCT-15 = system: HCT-15
# SF-268 = system: SF-268
# CCRF-CEM = system: CCRF-CEM
# TK-10 = system: TK-10
# NCI-H460 = system: NCI-H460
# M14 = system: M14
# A549 = system: A549
# LXFL 529 = system: LXFL 529
# NCI-H226 = system: NCI-H226
# HCT-116 = system: HCT-116
# SN12C = system: SN12C
# RXF 393 = system: RXF 393
# RXF 631 = system: RXF 631
# K562 = system: K562
# ACHN = system: ACHN
# SF-295 = system: SF-295
# OVCAR-3 = system: OVCAR-3
# HT-29 = system: HT-29
# SK-MEL-2 = system: SK-MEL-2
# KM-20L2 = system: KM-20L2
# SNB-78 = system: SNB-78
# LOX IMVI = system: LOX IMVI
# NCI-H522 = system: NCI-H522
# OVCAR-4 = system: OVCAR-4
# UO-31 = system: UO-31
# U-251 = system: U-251
# UACC-257 = system: UACC-257
# SNB-19 = system: SNB-19
# HOP-62 = system: HOP-62
# SW-620 = system: SW-620
# KM12 = system: KM12
# COLO 205 = system: COLO 205
# OVCAR-8 = system: OVCAR-8
# NCI-H23 = system: NCI-H23
# DMS-114 = system: DMS-114
# SR = system: SR
# HOP-18 = system: HOP-18
# DLD-1 = system: DLD-1
# UACC-62 = system: UACC-62
# HOP-92 = system: HOP-92
# IGROV-1 = system: IGROV-1
# SK-OV-3 = system: SK-OV-3
# SK-MEL-5 = system: SK-MEL-5
# Malme-3M = system: Malme-3M
# XF498 = system: XF498
# M19-MEL = system: M19-MEL
# SNB-75 = system: SNB-75
smiles,measurement,setting,value
Cc1ccc(NC(=S)SCCC(=O)O)cc1,GI50,HCC 2998,> 100 µM (inactive)
same,GI50,A498,> 100 µM (inactive)
same,GI50,RPMI-8226,> 100 µM (inactive)
same,GI50,786-0,> 100 µM (inactive)
same,GI50,HL-60,> 100 µM (inactive)
same,GI50,CAKI-1,81.8 µM (inactive)
same,GI50,DMS-273,> 100 µM (inactive)
same,GI50,EKVX,> 100 µM (inactive)
same,GI50,OVCAR-5,> 100 µM (inactive)
same,GI50,MOLT-4,> 100 µM (inactive)
same,GI50,SK-MEL-28,> 100 µM (inactive)
same,GI50,SF-539,> 100 µM (inactive)
same,GI50,HCT-15,> 100 µM
same,GI50,SF-268,71.6 µM (inactive)
same,GI50,CCRF-CEM,> 100 µM (inactive)
same,GI50,TK-10,> 100 µM (inactive)
same,GI50,NCI-H460,> 100 µM (inactive)
same,GI50,M14,> 100 µM (inactive)
same,GI50,A549,> 100 µM (inactive)
same,GI50,LXFL 529,> 100 µM (inactive)
same,GI50,NCI-H226,> 100 µM (inactive)
same,GI50,HCT-116,> 100 µM (inactive)
same,GI50,SN12C,> 100 µM (inactive)
same,GI50,RXF 393,> 100 µM (inactive)
same,GI50,RXF 631,> 100 µM (inactive)
same,GI50,K562,> 100 µM (inactive)
same,GI50,ACHN,> 100 µM (inactive)
same,GI50,SF-295,> 100 µM (inactive)
same,GI50,OVCAR-3,> 100 µM (inactive)
same,GI50,HT-29,> 100 µM (inactive)
same,GI50,SK-MEL-2,> 100 µM (inactive)
same,GI50,KM-20L2,> 100 µM (inactive)
same,GI50,SNB-78,> 100 µM (inactive)
same,GI50,LOX IMVI,> 100 µM (inactive)
same,GI50,NCI-H522,> 100 µM (inactive)
same,GI50,OVCAR-4,> 100 µM (inactive)
same,GI50,UO-31,> 100 µM (inactive)
same,GI50,U-251,> 100 µM (inactive)
same,GI50,UACC-257,> 100 µM (inactive)
same,GI50,SNB-19,> 100 µM (inactive)
same,GI50,HOP-62,> 100 µM (inactive)
same,GI50,SW-620,> 100 µM (inactive)
same,GI50,KM12,> 100 µM (inactive)
same,GI50,COLO 205,> 100 µM (inactive)
same,GI50,OVCAR-8,> 100 µM (inactive)
same,GI50,NCI-H23,> 100 µM (inactive)
same,GI50,DMS-114,> 100 µM (inactive)
same,GI50,SR,> 100 µM (inactive)
Cn1nc(-c2ccccc2)c(C(=O)/C=C/c2ccccc2)c(N2CCCCC2)c1=O,GI50,RPMI-8226,4.22 µM (inactive)
same,GI50,786-0,12.5 µM (inactive)
same,GI50,HL-60,2.72 µM (inactive)
same,GI50,CAKI-1,22.2 µM (inactive)
same,GI50,DMS-273,37.7 µM (inactive)
same,GI50,EKVX,> 100 µM (inactive)
same,GI50,HOP-18,40.8 µM (inactive)
same,GI50,MOLT-4,2.36 µM (inactive)
same,GI50,SK-MEL-28,14.5 µM (inactive)
same,GI50,SF-539,41.5 µM (inactive)
same,GI50,DLD-1,9.35 µM (inactive)
same,GI50,UACC-62,15.9 µM (inactive)
same,GI50,HCT-15,17.7 µM
same,GI50,SF-268,23.7 µM (inactive)
same,GI50,HOP-92,7.31 µM (inactive)
same,GI50,CCRF-CEM,3.72 µM (inactive)
same,GI50,TK-10,> 100 µM (inactive)
same,GI50,IGROV-1,> 100 µM (inactive)
same,GI50,NCI-H460,7.67 µM (inactive)
same,GI50,M14,47.6 µM (inactive)
same,GI50,A549,9.86 µM (inactive)
same,GI50,LXFL 529,> 100 µM (inactive)
same,GI50,SK-OV-3,> 100 µM (inactive)
same,GI50,HCT-116,4.91 µM (inactive)
same,GI50,SN12C,> 100 µM (inactive)
same,GI50,RXF 393,12.8 µM (inactive)
same,GI50,RXF 631,> 100 µM (inactive)
same,GI50,K562,4.7 µM (inactive)
same,GI50,ACHN,46.1 µM (inactive)
same,GI50,HT-29,11.7 µM (inactive)
same,GI50,KM-20L2,10.4 µM (inactive)
same,GI50,LOX IMVI,11.7 µM (inactive)
same,GI50,NCI-H522,7.05 µM (inactive)
same,GI50,UO-31,17.5 µM (inactive)
same,GI50,U-251,> 100 µM (inactive)
same,GI50,SNB-19,> 100 µM (inactive)
same,GI50,HOP-62,3.91 µM (inactive)
same,GI50,SW-620,34 µM (inactive)
same,GI50,COLO 205,9.98 µM (inactive)
same,GI50,SK-MEL-5,17.5 µM (inactive)
same,GI50,OVCAR-8,42 µM (inactive)
same,GI50,NCI-H23,14 µM (inactive)
same,GI50,DMS-114,> 100 µM (inactive)
CCOC(=O)C(Cc1c[nH]c2cc([N+](=O)[O-])ccc12)NS(=O)(=O)c1ccc2ccccc2c1 (configuration not stated),GI50,HCC 2998,24.2 µM (inactive)
same,GI50,A498,29.2 µM (inactive)
same,GI50,RPMI-8226,22 µM (inactive)
same,GI50,786-0,26.5 µM (inactive)
same,GI50,HL-60,22.8 µM (inactive)
same,GI50,DMS-273,17.5 µM (inactive)
same,GI50,EKVX,29.1 µM (inactive)
same,GI50,HOP-18,29.5 µM (inactive)
same,GI50,MOLT-4,26 µM (inactive)
same,GI50,SK-MEL-28,18.2 µM (inactive)
same,GI50,SF-539,17.5 µM (inactive)
same,GI50,DLD-1,23.7 µM (inactive)
same,GI50,UACC-62,16.7 µM (inactive)
same,GI50,HCT-15,18.7 µM
same,GI50,SF-268,20.2 µM (inactive)
same,GI50,HOP-92,19.9 µM (inactive)
same,GI50,CCRF-CEM,20.1 µM (inactive)
same,GI50,TK-10,26.4 µM (inactive)
same,GI50,IGROV-1,21.4 µM (inactive)
same,GI50,NCI-H460,18.1 µM (inactive)
same,GI50,M14,19 µM (inactive)
same,GI50,A549,30.6 µM (inactive)
same,GI50,LXFL 529,17.5 µM (inactive)
same,GI50,Malme-3M,> 10 µM (inactive)
same,GI50,XF498,17.3 µM (inactive)
same,GI50,M19-MEL,17.2 µM (inactive)
same,GI50,NCI-H226,16.7 µM (inactive)
same,GI50,SK-OV-3,23.4 µM (inactive)
same,GI50,HCT-116,17.2 µM (inactive)
same,GI50,SN12C,18.7 µM (inactive)
same,GI50,RXF 393,14.7 µM (inactive)
same,GI50,K562,18.1 µM (inactive)
same,GI50,ACHN,23.6 µM (inactive)
same,GI50,SF-295,17.3 µM (inactive)
same,GI50,OVCAR-3,16.7 µM (inactive)
same,GI50,HT-29,17.2 µM (inactive)
same,GI50,SK-MEL-2,17.4 µM (inactive)
same,GI50,KM-20L2,19 µM (inactive)
same,GI50,SNB-78,20.7 µM (inactive)
same,GI50,LOX IMVI,17.5 µM (inactive)
same,GI50,NCI-H522,16.3 µM (inactive)
same,GI50,OVCAR-4,10.9 µM (inactive)
same,GI50,UO-31,22.8 µM (inactive)
same,GI50,U-251,17.6 µM (inactive)
same,GI50,UACC-257,15.3 µM (inactive)
same,GI50,SNB-19,37.9 µM (inactive)
same,GI50,HOP-62,15.7 µM (inactive)
same,GI50,SW-620,21.2 µM (inactive)
same,GI50,KM12,17.1 µM (inactive)
same,GI50,COLO 205,18 µM (inactive)
same,GI50,OVCAR-8,21.4 µM (inactive)
same,GI50,SNB-75,17.1 µM (inactive)
same,GI50,NCI-H23,21.9 µM (inactive)
same,GI50,DMS-114,19.7 µM (inactive)
same,GI50,SR,17.5 µM (inactive)
CCOC(=O)NN(C(=O)OCC)C(C(=O)c1ccc(Cl)cc1)=C1NCCN1,GI50,HCC 2998,> 100 µM (inactive)
same,GI50,A498,> 100 µM (inactive)
same,GI50,786-0,> 100 µM (inactive)
same,GI50,HL-60,> 100 µM (inactive)
same,GI50,CAKI-1,> 100 µM (inactive)
same,GI50,DMS-273,> 100 µM (inactive)
same,GI50,EKVX,> 100 µM (inactive)
same,GI50,HOP-18,> 100 µM (inactive)
same,GI50,OVCAR-5,> 100 µM (inactive)
same,GI50,MOLT-4,> 100 µM (inactive)
same,GI50,SK-MEL-28,> 100 µM (inactive)
same,GI50,SF-539,> 100 µM (inactive)
same,GI50,DLD-1,> 100 µM (inactive)
same,GI50,UACC-62,> 100 µM (inactive)
same,GI50,SF-268,> 100 µM (inactive)
same,GI50,HOP-92,> 100 µM (inactive)
same,GI50,CCRF-CEM,> 100 µM (inactive)
same,GI50,TK-10,> 100 µM (inactive)
same,GI50,IGROV-1,> 100 µM (inactive)
same,GI50,NCI-H460,> 100 µM (inactive)
same,GI50,M14,> 100 µM (inactive)
same,GI50,A549,> 100 µM (inactive)
same,GI50,LXFL 529,> 100 µM (inactive)
same,GI50,Malme-3M,> 100 µM (inactive)
same,GI50,XF498,78.9 µM (inactive)
same,GI50,M19-MEL,> 100 µM (inactive)
same,GI50,NCI-H226,> 100 µM (inactive)
same,GI50,SK-OV-3,> 100 µM (inactive)
same,GI50,HCT-116,> 100 µM (inactive)
same,GI50,SN12C,> 100 µM (inactive)
same,GI50,RXF 393,> 100 µM (inactive)
same,GI50,K562,> 100 µM (inactive)
same,GI50,ACHN,> 100 µM (inactive)
same,GI50,SF-295,> 100 µM (inactive)
same,GI50,OVCAR-3,> 100 µM (inactive)
same,GI50,HT-29,> 100 µM (inactive)
same,GI50,SK-MEL-2,> 100 µM (inactive)
same,GI50,KM-20L2,> 100 µM (inactive)
same,GI50,SNB-78,> 100 µM (inactive)
same,GI50,LOX IMVI,> 100 µM (inactive)
same,GI50,NCI-H522,> 100 µM (inactive)
same,GI50,OVCAR-4,> 100 µM (inactive)
same,GI50,UO-31,> 100 µM (inactive)
same,GI50,U-251,> 100 µM (inactive)
same,GI50,UACC-257,> 100 µM (inactive)
same,GI50,SNB-19,> 100 µM (inactive)
same,GI50,HOP-62,> 100 µM (inactive)
same,GI50,SW-620,> 100 µM (inactive)
same,GI50,KM12,> 100 µM (inactive)
same,GI50,COLO 205,> 100 µM (inactive)
same,GI50,SK-MEL-5,> 100 µM (inactive)
same,GI50,OVCAR-8,> 100 µM (inactive)
same,GI50,SNB-75,52.4 µM (inactive)
same,GI50,NCI-H23,> 100 µM (inactive)
same,GI50,DMS-114,> 100 µM (inactive)
same,GI50,SR,> 100 µM (inactive)
